Test results as given in patent publication US20210353613A1, “TREATMENT OF NEUROLOGICAL DISEASE” (Aclipse One Inc., priority 2018, published 2021).
Entries after “also recorded” stand apart in the source; their conditions may differ.

Legend:
Format in all cases: cell-based
induced MN cells = experiment: Co-culture of iAstrocytes with human induced motor neurons from the same donors: MN survival; details: for MN survival on Day 3: 10 μM
Procedure: Induced Astrocytes from healthy controls or ALS patients were also used in a co-culture assay to determine their effect on the survival of induced MN cells from the same healthy controls or ALS patients.
The preparation of iAstrocytes and induced MN cells has been described in Example 1. […] The MN survival on Day 3 was evaluated as a percentage of survived MN cells observed on Day 1.

[1] = test system: mouse motor neuron (MN) survival; experiment: Co-culture of patient iAstrocytes with mouse Hb9-GFP motor neurons: MN survival; details: for mouse Hb9GFP+ motor neuron rescue: percentage of motor neuron survival: FIG. 4, 10uM, 3 days after administration, compared to vehicle (DMSO), sALS, SOD1, C9orf72 iAstrocytes
Procedure: Induced astrocytes from control or ALS patients were used in a co-culture assay to determine their effect on mouse motor neuron (MN) survival. Mouse embryonic stem cell-derived motor neurons expressing green fluorescence protein (GFP) under the control of the HB9 promoter were sorted and added to iAstrocytes from patients and controls. […] The survival of mouse MNs was monitored on Day 1 and 3 with confocal image acquisition.
The MN survival on Day 3 was evaluated as a percentage of survived MN cells observed on Day 1.

misfolded SOD1 = experiment: Misfolded SOD1 immunocytochemistry (B8H10 antibody) in human iAstrocytes; details: for SOD1 misfolding in human iAstrocytes: FIGS. 7 and 8 legends, iAstrocytes from controls and C9orf72, SOD1, sporadic ALS patients; for misfolded SOD1 positive cells: 10 μM, 24 hours
Procedure: The preparation of iAstrocytes has been described in Example 1. At Day 5, the 96 well plate was coated with fibronectin diluted 1:400 in PBS and allowed to set for cell adhesion. iAstrocytes were first washed in an appropriate volume of PBS before incubating for 5 min at 37° C. in lml of accutase. The accutase was neutralized in an appropriate volume of iAstrocyte medium and cells were collected in a 15 ml falcon and centrifuged at 200g for 4 min to form a pellet. The pellet was resuspended in an appropriate volume of medium and the cells were counted using a Burker hemocytometer. The cells were seeded at the desired density and were left for 24 hours to adhere. […]
At Day 7, iAstrocytes were fixed in 4% PFA. These were then stained with misfolded SOD1 antibody (B8H10), CD44 to identify cell area and DAPI. Columbus analysis software was used to quantify immunocytochemistry images. In each condition, the number of nuclei was established. In astrocytes stained for misfolded SOD1 protein aggregates, the number, intensity and area of misfolded SOD1 aggregates within the nucleus and surrounding perinuclear area were quantified as well as the percentage of cells positive for misfolded SOD1 accumulation.

[2] = iAstrocytes and induced MNs from ALS patient with C9orf72 mutation
[3] = iAstrocytes from three ALS patients with C9orf72 mutation, mouse MNs

Compound: CN1CCc2cccc3c2[C@@H]1Cc1ccc(O)c(O)c1-3 [(6aS)-6-methyl-5,6,6a,7-tetrahydro-4H-dibenzo[de,g]quinoline-10,11-diol]
- MN survival on Day 3 (induced MN cells; [2]): the most significant outcome
- toxicity of astrocytes to MN cells (MN survival on Day 3) (induced MN cells; iAstrocytes and induced MNs from ALS patient with SOD1 mutation): most effectively dampened the toxicity of SOD1-derived astrocytes
- MN survival on Day 3 (induced MN cells; iAstrocytes and induced MNs from sALS patients): beneficial at reducing toxicity caused by iAstrocytes from some sporadic patients over others
- mouse Hb9GFP+ motor neuron rescue: percentage of motor neuron survival [1]: increase in percentage of motor neuron survival
- MN survival on Day 3 (percentage of survived MN cells observed on Day 1) ([1]; iAstrocytes from ALS patients with C9orf72 mutation, mouse MNs, untreated no more than 33%): up to 38%
- survival of MN cells on Day 3 ([1]; iAstrocytes from ALS patients with SOD1 mutation, mouse MNs): most significant improvement
- survival of MN cells on Day 3 [1, 3]: significantly improved
- percentage of misfolded SOD1 perinuclear aggregates (DMSO = 100%) (misfolded SOD1; FIG. 9, 10uM, 48 hours, iAstrocytes of sALS, SOD1, C9orf72 patients and controls, listed as (6a5)-6-methyl-5,6,6a,7-tetrahydro-4H-dibenzo[de,g]quinoline-10,11-diol): reduction of misfolded SOD1 in all patient lines treated; also recorded: significant reduction in misfolded SOD1 in 6 different patient lines
- SOD1 misfolding in human iAstrocytes (misfolded SOD1): Reduced SOD1 misfolding
- misfolded SOD1 positive cells (misfolded SOD1; SOD1 astrocytes compared with other cell types): greatest decrease in SOD1 astrocytes
- misfolded SOD1 positive cells (misfolded SOD1; all cell types (control, C9orf72, SOD1, sporadic iAstrocytes)): reduction of misfolded SOD1 positive cells across all cell types

Compound: C=C1CC[C@@H]2[C@](C)(CO)[C@H](O)CC[C@@]2(C)[C@@H]1C/C=C1/C(=O)OC[C@H]1O [andrographolide, reference compound]
- MN survival on Day 3 (induced MN cells; [2]): the most significant outcome
- mouse Hb9GFP+ motor neuron rescue: percentage of motor neuron survival [1]: increase in percentage of motor neuron survival
- survival of MN cells on Day 3 [1, 3]: significantly improved
- survival of MN cells on Day 3 ([1]; iAstrocytes from three sporadic ALS (sALS) patients, mouse MNs): most significantly improved
- SOD1 misfolding in human iAstrocytes (misfolded SOD1): Reduced SOD1 misfolding

Compound: Nc1nc2ccc(OC(F)(F)F)cc2s1 [riluzole, reference compound]
- SOD1 misfolding in human iAstrocytes (misfolded SOD1): Reduced SOD1 misfolding
